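1) Cells in 96-well plates. 2) Compound, 48 h, 5 concentrations. 3) Linear interpolation between surrounding doses. 4) Unreached endpoint = highest concentration. At the GI50, growth is halved. TGI marks complete inhibition of growth.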
Experiments:
Experiment in all cases: NCI-60 cell line screen, 48 h; in the data active = GI50 below about 0.43 µM; inactive = the rest
K-562 leukemia = system: K-562 leukemia
SNB-75 CNS = system: SNB-75 CNS
TK-10 renal = system: TK-10 renal
HT29 colon = system: HT29 colon
NCI-H522 lung = system: NCI-H522 lung
SF-268 CNS = system: SF-268 CNS
SNB-19 CNS = system: SNB-19 CNS
HCC-2998 colon = system: HCC-2998 colon
NCI-H226 lung = system: NCI-H226 lung
CAKI-1 renal = system: CAKI-1 renal
SN12C renal = system: SN12C renal
SF-539 CNS = system: SF-539 CNS
HL-60(TB) leukemia = system: HL-60(TB) leukemia
IGROV1 ovarian = system: IGROV1 ovarian
T-47D breast = system: T-47D breast
MOLT-4 leukemia = system: MOLT-4 leukemia
OVCAR-3 ovarian = system: OVCAR-3 ovarian
SK-MEL-28 melanoma = system: SK-MEL-28 melanoma
UACC-62 melanoma = system: UACC-62 melanoma
COLO 205 colon = system: COLO 205 colon
HS 578T breast = system: HS 578T breast
OVCAR-8 ovarian = system: OVCAR-8 ovarian
NCI/ADR-RES ovarian = system: NCI/ADR-RES ovarian
SW-620 colon = system: SW-620 colon
786-0 renal = system: 786-0 renal
SK-MEL-5 melanoma = system: SK-MEL-5 melanoma
MCF7 breast = system: MCF7 breast
A549 NSCLC = system: A549 NSCLC
A498 renal = system: A498 renal
BT-549 breast = system: BT-549 breast
CCRF-CEM leukemia = system: CCRF-CEM leukemia
OVCAR-5 ovarian = system: OVCAR-5 ovarian
HOP-92 NSCLC = system: HOP-92 NSCLC
SK-OV-3 ovarian = system: SK-OV-3 ovarian
LOX IMVI melanoma = system: LOX IMVI melanoma
NCI-H460 lung = system: NCI-H460 lung
M14 melanoma = system: M14 melanoma
SF-295 CNS = system: SF-295 CNS
OVCAR-4 ovarian = system: OVCAR-4 ovarian
MALME-3M melanoma = system: MALME-3M melanoma
UACC-257 melanoma = system: UACC-257 melanoma
ACHN renal = system: ACHN renal
SR leukemia = system: SR leukemia
EKVX NSCLC = system: EKVX NSCLC
UO-31 renal = system: UO-31 renal
PC-3 prostate = system: PC-3 prostate
NCI-H23 lung = system: NCI-H23 lung
U251 CNS = system: U251 CNS
DU-145 prostate = system: DU-145 prostate
MDA-MB-231 breast = system: MDA-MB-231 breast
KM12 colon = system: KM12 colon
HCT-116 colon = system: HCT-116 colon
SK-MEL-2 melanoma = system: SK-MEL-2 melanoma
MDA-MB-435 = system: MDA-MB-435
RPMI-8226 leukemia = system: RPMI-8226 leukemia
HOP-62 NSCLC = system: HOP-62 NSCLC
HCT-15 colon = system: HCT-15 colon
RXF 393 renal = system: RXF 393 renal

Nc1nc2c(ncn2Cc2ccccc2CO)c(=O)[nH]1
> 100 µM: TGI (K-562 leukemia) | TGI (SNB-75 CNS) | TGI (TK-10 renal) | TGI (HT29 colon) | TGI (NCI-H522 lung) | TGI (SF-268 CNS) | TGI (SNB-19 CNS) | TGI (HCC-2998 colon) | TGI (NCI-H226 lung) | TGI (CAKI-1 renal) | TGI (SN12C renal) | TGI (SF-539 CNS) | TGI (HL-60(TB) leukemia) | TGI (IGROV1 ovarian) | TGI (T-47D breast) | TGI (MOLT-4 leukemia) | TGI (OVCAR-3 ovarian) | TGI (SK-MEL-28 melanoma) | TGI (UACC-62 melanoma) | TGI (COLO 205 colon) | TGI (HS 578T breast) | TGI (OVCAR-8 ovarian) | TGI (NCI/ADR-RES ovarian) | TGI (SW-620 colon) | TGI (786-0 renal) | TGI (SK-MEL-5 melanoma) | TGI (MCF7 breast) | TGI (A549 NSCLC) | TGI (A498 renal) | TGI (BT-549 breast) | TGI (CCRF-CEM leukemia) | TGI (OVCAR-5 ovarian) | TGI (HOP-92 NSCLC) | TGI (SK-OV-3 ovarian) | TGI (LOX IMVI melanoma) | TGI (NCI-H460 lung) | TGI (M14 melanoma) | TGI (SF-295 CNS) | TGI (OVCAR-4 ovarian) | TGI (MALME-3M melanoma) | TGI (UACC-257 melanoma) | TGI (ACHN renal) | TGI (SR leukemia) | TGI (EKVX NSCLC) | TGI (UO-31 renal) | TGI (PC-3 prostate) | TGI (NCI-H23 lung) | TGI (U251 CNS) | TGI (DU-145 prostate) | TGI (MDA-MB-231 breast) | TGI (KM12 colon) | TGI (HCT-116 colon) | TGI (SK-MEL-2 melanoma) | TGI (MDA-MB-435) | TGI (RPMI-8226 leukemia) | TGI (HOP-62 NSCLC) | TGI (HCT-15 colon)

Cc1cc(N(CCCl)CCCl)ccc1C=Nc1ccc2ccccc2c1
27.6 µM: TGI (SK-MEL-5 melanoma)
1.13 µM: TGI (A498 renal)
> 100 µM: TGI (K-562 leukemia) | TGI (TK-10 renal) | TGI (HT29 colon) | TGI (SF-268 CNS) | TGI (SNB-19 CNS) | TGI (HCC-2998 colon) | TGI (CAKI-1 renal) | TGI (SN12C renal) | TGI (SF-539 CNS) | TGI (IGROV1 ovarian) | TGI (T-47D breast) | TGI (MOLT-4 leukemia) | TGI (SK-MEL-28 melanoma) | TGI (HS 578T breast) | TGI (OVCAR-8 ovarian) | TGI (NCI/ADR-RES ovarian) | TGI (SW-620 colon) | TGI (786-0 renal) | TGI (MCF7 breast) | TGI (A549 NSCLC) | TGI (BT-549 breast) | TGI (CCRF-CEM leukemia) | TGI (OVCAR-5 ovarian) | TGI (SK-OV-3 ovarian) | TGI (LOX IMVI melanoma) | TGI (NCI-H460 lung) | TGI (M14 melanoma) | TGI (OVCAR-4 ovarian) | TGI (MALME-3M melanoma) | TGI (ACHN renal) | TGI (SR leukemia) | TGI (UO-31 renal) | TGI (PC-3 prostate) | TGI (NCI-H23 lung) | TGI (U251 CNS) | TGI (DU-145 prostate) | TGI (MDA-MB-231 breast) | TGI (KM12 colon) | TGI (HCT-116 colon) | TGI (MDA-MB-435) | TGI (RPMI-8226 leukemia) | TGI (HOP-62 NSCLC) | TGI (HCT-15 colon)
> 77 µM: TGI (OVCAR-3 ovarian)
> 82.6 µM: TGI (COLO 205 colon)
61.1 µM: TGI (HOP-92 NSCLC)
> 96 µM: TGI (RXF 393 renal)
> 89.7 µM: TGI (SNB-75 CNS)
> 39.6 µM: TGI (UACC-257 melanoma)
active: GI50 (NCI-H226 lung) 0.297 µM | GI50 (A498 renal) 0.226 µM
> 55.8 µM: TGI (SF-295 CNS)
98 µM: TGI (SK-MEL-2 melanoma)
inactive: GI50 (K-562 leukemia) 32.4 µM | GI50 (SNB-75 CNS) 2.52 µM | GI50 (TK-10 renal) 24.5 µM | GI50 (HT29 colon) > 85.3 µM | GI50 (NCI-H522 lung) 20.1 µM | GI50 (SF-268 CNS) 15.8 µM | GI50 (SNB-19 CNS) 51.2 µM | GI50 (HCC-2998 colon) 27.9 µM | GI50 (CAKI-1 renal) 1.51 µM | GI50 (SN12C renal) 12.4 µM | GI50 (SF-539 CNS) 4.97 µM | GI50 (HL-60(TB) leukemia) 8.6 µM | GI50 (IGROV1 ovarian) 28.5 µM | GI50 (T-47D breast) 3.32 µM | GI50 (MOLT-4 leukemia) 4.52 µM | GI50 (OVCAR-3 ovarian) 14.8 µM | GI50 (SK-MEL-28 melanoma) > 100 µM | GI50 (UACC-62 melanoma) 2.45 µM | GI50 (COLO 205 colon) 13.2 µM | GI50 (HS 578T breast) 34.3 µM | GI50 (OVCAR-8 ovarian) 24.3 µM | GI50 (NCI/ADR-RES ovarian) 9.62 µM | GI50 (SW-620 colon) 41.9 µM | GI50 (786-0 renal) 12.7 µM | GI50 (SK-MEL-5 melanoma) 6.8 µM | GI50 (MCF7 breast) 2.36 µM | GI50 (A549 NSCLC) 14.2 µM | GI50 (BT-549 breast) 19.8 µM | GI50 (CCRF-CEM leukemia) 4.85 µM | GI50 (OVCAR-5 ovarian) 2.52 µM | GI50 (HOP-92 NSCLC) 11.8 µM | GI50 (SK-OV-3 ovarian) 19.3 µM | GI50 (LOX IMVI melanoma) 22.1 µM | GI50 (NCI-H460 lung) 0.485 µM | GI50 (RXF 393 renal) 13.4 µM | GI50 (M14 melanoma) 31.7 µM | GI50 (SF-295 CNS) 2.08 µM | GI50 (OVCAR-4 ovarian) 15.5 µM | GI50 (MALME-3M melanoma) 50.3 µM | GI50 (UACC-257 melanoma) 3.17 µM | GI50 (ACHN renal) 4.51 µM | GI50 (SR leukemia) 4.08 µM | GI50 (UO-31 renal) 8.71 µM | GI50 (PC-3 prostate) 17 µM | GI50 (NCI-H23 lung) 6.12 µM | GI50 (U251 CNS) 9.98 µM | GI50 (DU-145 prostate) 7.71 µM | GI50 (MDA-MB-231 breast) 34.5 µM | GI50 (KM12 colon) 66.8 µM | GI50 (HCT-116 colon) 38 µM | GI50 (SK-MEL-2 melanoma) 40 µM | GI50 (MDA-MB-435) 53.3 µM | GI50 (RPMI-8226 leukemia) 29.3 µM | GI50 (HOP-62 NSCLC) 25.2 µM | GI50 (HCT-15 colon) 27.6 µM
> 66.5 µM: TGI (NCI-H522 lung)
> 68.6 µM: TGI (HL-60(TB) leukemia)
28.3 µM: TGI (UACC-62 melanoma)
1.82 µM: TGI (NCI-H226 lung)

From PubChem BioAssay (NCI)
